The results in this text go back to ChEMBL document CHEMBL1201862, “PubChem BioAssay data set” (2004).

Experiment [1] deals with T1, DNA repair and recombination protein RAD54-like (Homo sapiens, UniProt Q92698).
T1 sequence (Q92698 whole entry): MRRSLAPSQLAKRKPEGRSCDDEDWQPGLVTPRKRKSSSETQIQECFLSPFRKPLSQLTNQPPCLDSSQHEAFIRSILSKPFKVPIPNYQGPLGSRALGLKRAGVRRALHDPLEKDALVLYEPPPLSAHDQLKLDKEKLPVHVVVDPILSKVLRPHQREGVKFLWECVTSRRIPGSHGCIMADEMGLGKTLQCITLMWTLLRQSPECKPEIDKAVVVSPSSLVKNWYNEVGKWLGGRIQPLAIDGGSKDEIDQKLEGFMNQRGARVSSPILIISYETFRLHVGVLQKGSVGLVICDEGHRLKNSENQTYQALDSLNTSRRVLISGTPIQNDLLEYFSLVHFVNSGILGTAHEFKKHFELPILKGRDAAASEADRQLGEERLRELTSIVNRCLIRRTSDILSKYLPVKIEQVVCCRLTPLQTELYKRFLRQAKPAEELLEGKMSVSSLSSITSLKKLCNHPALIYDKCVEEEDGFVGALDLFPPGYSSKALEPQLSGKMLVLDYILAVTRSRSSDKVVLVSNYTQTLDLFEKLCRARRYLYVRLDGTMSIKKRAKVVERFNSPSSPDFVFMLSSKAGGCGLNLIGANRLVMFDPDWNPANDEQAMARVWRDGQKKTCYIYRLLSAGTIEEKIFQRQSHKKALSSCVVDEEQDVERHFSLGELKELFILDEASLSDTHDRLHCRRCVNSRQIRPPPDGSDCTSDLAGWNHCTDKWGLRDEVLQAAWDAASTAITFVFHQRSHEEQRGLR
Nature of the experiment: inhibitors of human RAD54 branch migration, confirmation, biochemical, fluorescence, cherry-picked samples, dose series (AID 651657). Type of experiment: functional.

Experiment [2] in a line: cytotoxicity toward NIH3T3 fibroblasts, dose response, counter-screen, cell-based, ATP luminescence, mouse fibroblasts (AID 2010).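 Further: cells exposed to compound for about 90 hours before reading.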 Type of experiment: functional.
In experiment [3] the target is Photoreceptor-specific nuclear receptor (Homo sapiens, UniProt Q9Y5X4). Type of experiment: functional, cell-based.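 Further: CHO-S cells with Gal4-NCOR and VP16-NR2E3 two-hybrid luciferase reporter.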
Chain of Photoreceptor-specific nuclear receptor (Q9Y5X4 whole entry, the tested form may be a part): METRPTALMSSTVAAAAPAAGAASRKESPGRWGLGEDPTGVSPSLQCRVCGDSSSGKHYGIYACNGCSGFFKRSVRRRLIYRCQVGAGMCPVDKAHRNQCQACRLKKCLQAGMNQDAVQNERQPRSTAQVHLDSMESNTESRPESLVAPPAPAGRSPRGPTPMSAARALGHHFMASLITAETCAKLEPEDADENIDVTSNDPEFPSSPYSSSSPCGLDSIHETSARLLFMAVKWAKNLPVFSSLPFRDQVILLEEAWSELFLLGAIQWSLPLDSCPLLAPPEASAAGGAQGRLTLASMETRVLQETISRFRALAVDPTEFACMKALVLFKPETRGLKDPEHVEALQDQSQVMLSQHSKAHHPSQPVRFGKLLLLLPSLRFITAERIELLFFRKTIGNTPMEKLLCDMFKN
The nature of experiment [4]: inhibitors of intracellular T. cruzi replication, confirmation, NIH3T3 host cells, beta-gal luminescence (AID 2044).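 Further: intracellular parasites grown in NIH/3T3 mouse fibroblasts as host cells; luminescent beta-galactosidase reporter signal from transgenic T. cruzi replicating inside host cells; inhibitors lower the luminescence signal.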 Type of experiment: functional, cell-based.
Experiment [5] in a line: HEp-2 cell cytotoxicity, dose response, cytotoxicity control for RSV inhibitor project, HTS (AID 2410). Type of experiment: functional. Particulars: human respiratory syncytial virus.
Experiment [6] deals with T2, Low molecular weight phosphotyrosine protein phosphatase (Homo sapiens, UniProt P24666).
T2 sequence (P24666 whole entry): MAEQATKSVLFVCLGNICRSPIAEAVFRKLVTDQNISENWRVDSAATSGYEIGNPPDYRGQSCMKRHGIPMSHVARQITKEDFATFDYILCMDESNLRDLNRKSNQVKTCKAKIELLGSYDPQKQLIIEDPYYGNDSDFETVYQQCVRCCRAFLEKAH
Format: functional. Particulars: read-out: IC50_Mean.

For experiment [7], the target named is T2, Low molecular weight phosphotyrosine protein phosphatase. Type of experiment: functional. Conditions: read-out: IC50_Mean. This is another data set of the same source.
A short description of experiment [8]: cells.
Experiment [9] addresses T3, Corticotropin-releasing factor receptor 2/Corticotropin-releasing factor-binding protein (Homo sapiens, UniProt P24387+Q13324).
T3 sequence (Q13324 whole entry): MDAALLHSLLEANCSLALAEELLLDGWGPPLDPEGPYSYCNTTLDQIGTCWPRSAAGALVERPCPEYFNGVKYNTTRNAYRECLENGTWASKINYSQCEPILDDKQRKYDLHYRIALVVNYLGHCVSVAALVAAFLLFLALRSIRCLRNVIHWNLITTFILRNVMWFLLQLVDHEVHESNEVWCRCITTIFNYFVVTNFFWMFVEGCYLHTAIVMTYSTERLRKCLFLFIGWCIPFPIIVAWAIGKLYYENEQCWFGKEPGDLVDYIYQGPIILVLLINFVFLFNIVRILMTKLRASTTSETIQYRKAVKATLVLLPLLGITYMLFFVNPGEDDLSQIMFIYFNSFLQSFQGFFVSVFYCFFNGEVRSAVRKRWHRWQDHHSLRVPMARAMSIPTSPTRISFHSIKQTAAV
T3 sequence (P24387 whole entry): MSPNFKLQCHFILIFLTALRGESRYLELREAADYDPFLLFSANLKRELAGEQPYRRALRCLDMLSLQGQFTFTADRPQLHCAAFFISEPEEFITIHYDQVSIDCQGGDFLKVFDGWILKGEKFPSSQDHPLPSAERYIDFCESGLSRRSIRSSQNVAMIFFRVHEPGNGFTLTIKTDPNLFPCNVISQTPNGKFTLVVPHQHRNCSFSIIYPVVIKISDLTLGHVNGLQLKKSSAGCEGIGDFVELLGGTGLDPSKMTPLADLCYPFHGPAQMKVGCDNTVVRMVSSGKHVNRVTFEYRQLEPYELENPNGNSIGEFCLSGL
As to the kind of experiment: activators of CRF receptor 2 with binding protein – uHTS hits, confirmation (AID 602473). Conditions: read-out: EC50_Mean. Format: functional.

Experiment [10] has as its target T4, Aminopeptidase N (Plasmodium falciparum FcB1/Columbia, UniProt O96935).
T4 sequence (O96935 whole entry): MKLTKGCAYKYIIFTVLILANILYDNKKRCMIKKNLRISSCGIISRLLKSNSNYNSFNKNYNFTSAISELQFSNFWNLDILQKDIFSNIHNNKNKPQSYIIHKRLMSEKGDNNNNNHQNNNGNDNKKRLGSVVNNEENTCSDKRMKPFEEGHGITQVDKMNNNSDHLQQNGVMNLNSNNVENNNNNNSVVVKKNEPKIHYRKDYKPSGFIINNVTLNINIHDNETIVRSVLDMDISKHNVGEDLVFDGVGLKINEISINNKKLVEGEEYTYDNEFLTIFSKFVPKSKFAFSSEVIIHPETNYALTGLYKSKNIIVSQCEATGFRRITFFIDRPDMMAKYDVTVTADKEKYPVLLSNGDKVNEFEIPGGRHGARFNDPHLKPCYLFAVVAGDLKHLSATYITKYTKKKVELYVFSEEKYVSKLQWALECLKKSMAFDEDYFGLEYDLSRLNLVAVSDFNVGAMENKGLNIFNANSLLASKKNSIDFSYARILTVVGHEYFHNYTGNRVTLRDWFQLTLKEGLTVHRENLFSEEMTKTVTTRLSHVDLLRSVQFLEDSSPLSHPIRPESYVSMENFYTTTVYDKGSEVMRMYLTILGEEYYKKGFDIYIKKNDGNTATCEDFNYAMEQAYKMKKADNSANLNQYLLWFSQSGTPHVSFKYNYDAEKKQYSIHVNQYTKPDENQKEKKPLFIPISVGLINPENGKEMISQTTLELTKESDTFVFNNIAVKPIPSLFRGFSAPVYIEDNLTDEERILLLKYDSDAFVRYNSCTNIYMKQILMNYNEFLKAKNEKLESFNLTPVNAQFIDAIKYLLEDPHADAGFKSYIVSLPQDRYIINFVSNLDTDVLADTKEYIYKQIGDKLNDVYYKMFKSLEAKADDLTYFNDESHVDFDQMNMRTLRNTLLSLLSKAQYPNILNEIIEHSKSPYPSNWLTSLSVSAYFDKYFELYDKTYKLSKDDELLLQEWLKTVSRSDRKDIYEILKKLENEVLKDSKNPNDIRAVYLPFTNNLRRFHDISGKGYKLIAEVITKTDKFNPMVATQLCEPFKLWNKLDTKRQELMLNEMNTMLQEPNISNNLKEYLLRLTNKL
As to the kind of experiment: P. falciparum M1AAP inhibitors, biochemical, fluorogenic H-Leu-NHMec substrate, 1536-well (AID 1445). More on the design: species or system Plasmodium falciparum 3D7, 3D7.

Experiment [11] is described as follows: CRF-BP/CRF-R2 complex antagonists, dose response, cell-based, uHTS hits, 384-well (AID 651639). Conditions: read-out: IC50_Mean. Type of experiment: functional, Homo sapiens.
For experiment [12], the target named is T5, High affinity choline transporter 1 (Homo sapiens, UniProt Q9GZV3).
T5 sequence (Q9GZV3 whole entry): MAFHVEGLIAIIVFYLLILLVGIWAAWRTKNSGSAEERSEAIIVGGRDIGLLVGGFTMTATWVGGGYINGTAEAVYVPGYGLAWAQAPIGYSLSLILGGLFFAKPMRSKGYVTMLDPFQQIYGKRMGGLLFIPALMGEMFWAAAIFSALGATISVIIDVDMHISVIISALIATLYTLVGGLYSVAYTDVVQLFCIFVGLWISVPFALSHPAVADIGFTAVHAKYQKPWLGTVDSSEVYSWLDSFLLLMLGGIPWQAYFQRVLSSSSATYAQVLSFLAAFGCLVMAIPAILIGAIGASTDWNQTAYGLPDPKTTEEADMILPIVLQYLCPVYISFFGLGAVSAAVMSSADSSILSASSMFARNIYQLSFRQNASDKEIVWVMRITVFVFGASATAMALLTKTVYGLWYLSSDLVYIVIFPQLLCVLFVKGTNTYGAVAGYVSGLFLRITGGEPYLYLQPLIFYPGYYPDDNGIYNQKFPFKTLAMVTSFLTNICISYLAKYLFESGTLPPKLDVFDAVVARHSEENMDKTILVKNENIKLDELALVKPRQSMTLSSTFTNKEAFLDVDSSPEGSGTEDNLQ
As to the kind of experiment: CHT inhibitors, dose response, cell-based, 5-point CRC, membrane potential dye (AID 504840). Type of experiment: functional.

Experiment [13] deals with T3, Corticotropin-releasing factor receptor 2/Corticotropin-releasing factor-binding protein. As to the kind of experiment: Dose Response confirmation of uHTS hits for small molecule antagonists of the CRF-binding protein and CRF-R2 receptor complex. Format: functional. Conditions: read-out: IC50_Mean.
For experiment [14], the target named is Steroidogenic factor 1 (Homo sapiens, UniProt Q13285). Nature of the experiment: Counterscreen for inverse agonists of the liver receptor homolog-1 (LRH-1; NR5A2): Luminescence-based cell-based high throughput dose response assay to identify inverse agonists of the Steroidogenic Factor 1 Nuclear Receptor (SF1; NR5A1). Format: functional.
Chain of Steroidogenic factor 1 (Q13285 whole entry): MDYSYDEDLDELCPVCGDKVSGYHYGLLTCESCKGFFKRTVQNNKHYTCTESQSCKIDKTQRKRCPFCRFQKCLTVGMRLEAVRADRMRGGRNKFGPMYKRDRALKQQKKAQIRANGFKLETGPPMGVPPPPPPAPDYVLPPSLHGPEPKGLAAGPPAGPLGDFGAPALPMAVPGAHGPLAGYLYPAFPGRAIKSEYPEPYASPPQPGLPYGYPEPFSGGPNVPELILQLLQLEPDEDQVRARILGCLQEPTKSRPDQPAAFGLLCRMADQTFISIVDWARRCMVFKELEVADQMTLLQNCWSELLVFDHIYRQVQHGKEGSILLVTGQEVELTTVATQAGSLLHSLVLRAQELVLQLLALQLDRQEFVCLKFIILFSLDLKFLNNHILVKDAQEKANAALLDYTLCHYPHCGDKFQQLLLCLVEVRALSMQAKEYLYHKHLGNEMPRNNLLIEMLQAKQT
Experiment [15] deals with Nuclear receptor subfamily 5 group A member 2 (Homo sapiens, UniProt O00482). Type of experiment: functional, cell-based.
Chain of Nuclear receptor subfamily 5 group A member 2 (O00482 whole entry): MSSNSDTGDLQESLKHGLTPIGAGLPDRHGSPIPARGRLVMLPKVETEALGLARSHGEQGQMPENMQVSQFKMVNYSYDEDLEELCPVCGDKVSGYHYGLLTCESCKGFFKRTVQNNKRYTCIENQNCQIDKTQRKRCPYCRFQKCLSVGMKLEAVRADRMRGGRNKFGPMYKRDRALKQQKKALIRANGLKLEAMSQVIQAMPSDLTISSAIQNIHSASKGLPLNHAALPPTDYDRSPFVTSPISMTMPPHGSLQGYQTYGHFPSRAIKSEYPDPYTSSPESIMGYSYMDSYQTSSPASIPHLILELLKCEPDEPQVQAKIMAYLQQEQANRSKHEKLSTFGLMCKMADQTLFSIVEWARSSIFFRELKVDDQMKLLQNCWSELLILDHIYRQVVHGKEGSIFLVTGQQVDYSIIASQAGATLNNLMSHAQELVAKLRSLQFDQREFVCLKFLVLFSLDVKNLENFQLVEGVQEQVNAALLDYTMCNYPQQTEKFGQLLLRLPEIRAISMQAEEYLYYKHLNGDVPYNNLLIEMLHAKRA
Experiment [16] is described as follows: StAR promoter reporter inhibition counter-screen, dose response, counter-screen for LRH-1 inverse agonist project, cell-based, luminescence, luciferase reporter (AID 651969). Type of experiment: functional.
A short description of experiment [17]: cells. Format: functional, cell-based.
The nature of experiment [18]: cells. Type of experiment: functional, cell-based. This is another data set of the same source.

Active and inactive are the calls of the source.

With `CCN1CCN(C(S)=Nc2ccc3nc(N4CCN(CC)CC4)cc(C)c3c2)CC1`, the AC50 in [1] was 95 µM (active).
With `Cc1nn(Cc2cccc(F)c2)c(C)c1NC(=O)c1ccc(COc2ccccc2Cl)cc1`, the EC50 was 40.4 µM (active) in [2] and 1.26 µM (active) in experiment [4]. The IC50 in experiment [3] was 2.85 µM (active).
Turning to `O=C(O)c1cccc(NC(=O)c2cn(-c3ccccc3)nc2-c2cc3ccccc3o2)c1`, in experiment [5], the CC50 is 33 µM (active). For the same molecule, the IC50 is 43 µM (inactive) in experiment [6], 18 µM (active) in experiment [7] and 20.9 µM (active) in experiment [8].
Consider `O=C(Nc1cc(S(=O)(=O)N2CCCCC2)ccc1O)c1ccccc1NS(=O)(=O)c1ccc(F)c(F)c1`, for which the EC50 in [9] was 7.48 µM (active). Further, the IC50 in [10] is 69.4 µM (active); in experiment [11] it was > 20 µM (inactive); in experiment [12] it was 12.6 µM (active); in experiment [13], 5.71 µM (active).
On to `O=C(Nc1cccc(NC(=O)c2c(F)cccc2F)n1)c1c(F)cccc1F`, for which the IC50 in experiment [3] is 2.98 µM (active).
Take `Cc1cc(C)cc(Nc2c(F)c(F)c(F)c(F)c2C(=O)O)c1`: the EC50 in [9] was > 53 µM (inactive). Further, the IC50 is 3.74 µM (active) in experiment [11] and 31.2 µM (active) in [13].
On the same counts, the results for `Cc1ccc(S(=O)(=O)N2c3ccccc3OCC2c2ccccc2)cc1` (stereo not given) are > 53 µM (inactive), > 20 µM (inactive) and < 0.368 µM (active).
Turning to `O=C(COC(=O)c1ccc(Br)cc1)Nc1ccccc1Br`, the IC50 in experiment [14], in experiment [15] and in experiment [16] was 35.9 µM (inactive) throughout.
As to `O=C(N[C@H](C(=O)N1CCC[C@H]1C(=O)NCCc1ccccc1Cl)C1CCCCC1)c1cccs1`, in [17], the EC50 is > 29.9 µM (inactive). Moreover, in [18], the IC50 is > 29.9 µM (inactive).
